Results: article PMC7605213 (Journal of medicinal chemistry, 2020)
Values joined by “and” are separate entries in the source; they are usually repeats but may differ in a detail not shown here. Equal values may be shown once. “Also recorded” adds a separate entry of the source. Marks after values point to notes of the source that are not given here.

Assays:
[1] = tested on: CQ-resistant Pf Dd2 strain; test: In vitro antiplasmodial activity, SYBR green I fluorescence, Dd2 strain; type: cell-based, Plasmodium falciparum; settings: for activity against the Dd2 strain: aminoquinolines without the arylvinyl group; for resistance index (RI): RI = Dd2 EC50/3D7 EC50; for EC50: read-out: EC50 against the Dd2 strain, CQ-resistant Pf Dd2, 72 h incubation
[2] = tested on: P. berghei ANKA strain expressing luciferase; test: In vivo antimalarial activity: elimination of existing infection; set-up: species or system Swiss-Webster female mice; settings: 25 mg/kg daily p.o., monophosphate salts, treatment from 48 h post infection
[3] = tested on: P. berghei ANKA 676m1cl1; test: Assessment of the curative property; type: in vivo, BALB/c female mice
[4] = tested on: malaria infection; settings: cited from earlier work
[5] = tested on: β-hematin crystal formation; test: β-Hematin formation inhibition; type: biochemical; settings: 100 μM hemin, 16 h, 37 °C, highest concentration tested 200 μM
[6] = tested on: synchronized P. falciparum Dd2 cultures; test: Stage-specific action; type: cell-based, Plasmodium falciparum; settings: for stage-specific action on cell cycle progression: 5 × EC50 (DHA 50 nM, atovaquone 6.6 nM) added at 6, 18, 30, 42 HPI
[7] = mouse liver microsomes, 15, 30 and 60 min, tentative assignment
[8] = mouse liver microsomes; values reported from the initial study ref 33; cited from earlier work
[9] = tested on: P. falciparum Dd2 cultures; test: Transmission electron microscopy of treated parasites; type: cell-based, Plasmodium falciparum; settings: 5 × EC50 for 1.5, 3, 6 or 12 h
[10] = tested on: HepG2 cells; test: In vitro cytotoxicity assay; type: cell-based, human; settings: for selectivity index (SI): SI = HepG2 EC50/Dd2 EC50
[11] = tested on: CQ-sensitive 3D7 strain; test: In vitro antiplasmodial activity, SYBR green I fluorescence, 3D7 strain; type: cell-based, Plasmodium falciparum

COc1ccc2nc(C)cc(NCCN(C)C)c2c1 [6a, N^1-(6-Methoxy-2-methylquinolin-4-yl)-N^2,N^2-dimethylethane-1,2-diamine]
activity against the Dd2 strain [1]: inactive

Cc1cc(NCCN(C)C)c2cc(Cl)ccc2n1 [6c, N^1-(6-Chloro-2-methylquinolin-4-yl)-N^2,N^2-dimethylethane-1,2-diamine]
activity against the Dd2 strain [1]: inactive

Cc1cc(NCCCCN(C)C)c2cc(Cl)ccc2n1 [6e, N^1-(6-Chloro-2-methylquinolin-4-yl)-N^4,N^4-dimethylbutane-1,4-diamine]
activity against the Dd2 strain [1]: inactive

CN(C)CCNc1cc(/C=C/c2ccc(C(F)(F)F)cc2)nc2ccc(Cl)cc12.O=P(O)(O)O [24s, (E)-N^1-(6-Chloro-2-(4-(trifluoromethyl)styryl)quinolin-4-yl)-N^2,N^2-dimethylethane-1,2-diamine Monophosphate Salt]
effect on malaria infection (bioluminescence day 7) [2]: full protection and cure | mice cured (no parasites in blood smears / 100% reduction of parasitemia) ([3]; 100 mg/kg p.o. once daily for 4 days): no parasites were detected and 5/5 | body weight change ([3]; 25 and 100 mg/kg p.o.): no significant weight loss | tolerability / signs of toxicity ([3]; 25 and 100 mg/kg p.o.): well tolerated; also recorded: no apparent signs of toxicity

CN(C)CCNc1cc(/C=C/c2ccc(F)cc2)nc2ccc(Cl)cc12.O=P(O)(O)O [29s, (E)-N^1-(6-Chloro-2-(4-fluorostyryl)quinolin-4-yl)-N^2,N^2-dimethylethane-1,2-diamine Monophosphate Salt]
effect on malaria infection (bioluminescence day 7) [2]: effectively cleared the parasites

CN1CCN(CCNc2cc(/C=C/c3ccc(F)cc3)nc3ccc(Cl)cc23)CC1.O=P(O)(O)O [86s, (E)-6-Chloro-2-(4-fluorostyryl)-N-(2-(4-methylpiperazin-1-yl)-ethyl)quinolin-4-amine Monophosphate Salt]
effect on malaria infection (bioluminescence day 7) [2]: ineffective

CCN(CC)CCCC(C)Nc1ccnc2cc(Cl)ccc12 (stereo not drawn) [CQ, chloroquine, reference compound]
mean survival time (MSD) ([4]; 30 mg/kg ref 61): 24 days | inhibition of β-hematin formation [5]: strongly inhibited β-hematin formation

C[C@H]1[C@@H](O)O[C@@H]2O[C@@]3(C)CC[C@H]4[C@H](C)CC[C@@H]1[C@@]24OO3 [DHA, dihydroartemisinin, reference compound]
stage-specific action on cell cycle progression [6]: inhibition of all stages

CCN(CC)CCCC(C)Nc1cc(/C=C/c2ccc([N+](=O)[O-])cc2)nc2ccc(OC)cc12 (stereo not drawn) [UCF501]
mice cured of malaria infection ([4]; 100 mg/kg twice daily p.o. ref 33): 4/5 | metabolites / metabolic pathway identified by LC–MS [7]: N-deethylation of the tertiary amine (monodeethyl UCF501 and UCF501-M1), O-demethylation (UCF501-M2), oxidation of styrylquinoline (UCF501-M3), and the reduction of the nitro group | % remaining after 60 min [8]: 47.8^a %

O=C1C(O)=C([C@H]2CC[C@H](c3ccc(Cl)cc3)CC2)C(=O)c2ccccc21 [atovaquone, reference compound]
stage-specific action on cell cycle progression [6]: no inhibition in late stages

COc1ccc2nc(/C=C/c3ccccc3)cc(NCCN(C)C)c2c1 [compound 8, (E)-N^1-(6-Methoxy-2-styrylquinolin-4-yl)-N^2,N^2-dimethylethane-1,2-diaminei]
resistance index (RI) [1]: ≥ 1.5

COc1ccc2nc(/C=C/c3ccc(OC)c(OC)c3)cc(NCCN(C)C)c2c1 [compound 13, (E)-N^1-(2-(3,4-Dimethoxystyryl)-6-methoxyquinolin-4-yl)-N^2,N^2-dimethylethane-1,2-diamine]
resistance index (RI) [1]: ≥ 1.5

COc1ccc2nc(/C=C/c3cc(OC)c(OC)c(OC)c3)cc(NCCN(C)C)c2c1 [compound 14, (E)-N^1-(6-Methoxy-2-(3,4,5-trimethoxystyryl)quinolin-4-yl)-N^2,N^2-dimethylethane-1,2-diamine]
resistance index (RI) [1]: ≥ 1.5

COc1ccc(/C=C/c2cc(NCCN(C)C)c3cc(F)ccc3n2)cc1OC [compound 20, (E)-N^1-(2-(3,4-Dimethoxystyryl)-6-fluoroquinolin-4-yl)-N^2,N^2-dimethylethane-1,2-diamine]
fold improved activity compared to compound 13 ([1]; Dd2): approximately 4.5 fold

CN(C)CCNc1cc(/C=C/c2ccc(C(F)(F)F)cc2)nc2ccc(Cl)cc12 [compound 24, (E)-N^1-(6-Chloro-2-(4-(trifluoromethyl)styryl)quinolin-4-yl)-N^2,N^2-dimethylethane-1,2-diamine]
ultrastructural effect (TEM) [9]: appearance of membrane-bound structures within the parasite DV | stage-specific action on cell cycle progression [6]: blocked when the compound was added at 6, 18, and 30 HPI | effect on cell cycle when added at 42 HPI ([6]; 5 × EC50, added at 42 HPI): did not affect the schizont maturation or the reinvasion of new merozoites | metabolites / metabolic pathway identified by LC–MS [7]: N-demethylation was the primary metabolic route | inhibition of β-hematin formation [5]: very low activity against β-hematin crystal formation; also recorded: weaker inhibitory activity toward β-hematin formation as compared with CQ | selectivity index (SI) [10]: > 1000

CN(C)CCNc1cc(/C=C/c2ccc(N(C)C)cc2)nc2ccc(Cl)cc12 [compound 28, (E)-N^1-(6-Chloro-2-(4-(dimethylamino)styryl)quinolin-4-yl)-N^2,N^2-dimethylethane-1,2-diamine]
resistance index (RI) [1]: 1.3

CN(C)CCNc1cc(/C=C/c2ccc(F)cc2)nc2ccc(Cl)cc12 [compound 29, (E)-N^1-(6-Chloro-2-(4-fluorostyryl)quinolin-4-yl)-N^2,N^2-dimethylethane-1,2-diamine]
stage-specific action on cell cycle progression [6]: stage-specific action at the late trophozoite phase | metabolites / metabolic pathway identified by LC–MS [7]: monodemethylated (29-M1), bi-demethylated (29-M2), and oxidized products (29-M3) | inhibition of β-hematin formation [5]: showed inhibitory activity toward β-hematin formation in a concentration-dependent manner | selectivity index (SI) [10]: > 1000

COc1ccc2nc(/C=C/c3ccncc3)cc(NCCN(C)C)c2c1 [compound 41, (E)-N^1-(6-Methoxy-2-(2-(pyridin-4-yl)vinyl)quinolin-4-yl)-N^2,N^2-dimethylethane-1,2-diamine]
fold activity difference versus 2-pyridyl isomer 42 ([1]; Dd2): up to 30 fold

CN(C)CCNc1cc(/C=C/c2ccncc2)nc2ccc(Cl)cc12 [compound 50, (E)-N^1-(6-Chloro-2-(2-(pyridin-4-yl)vinyl)quinolin-4-yl)-N^2,N^2-dimethylethane-1,2-diamine]
resistance index (RI) [1]: < 1

CN1CCN(CCNc2cc(/C=C/c3ccc(F)cc3)nc3ccc(Cl)cc23)CC1 [compound 86, (E)-6-Chloro-2-(4-fluorostyryl)-N-(2-(4-methylpiperazin-1-yl)-ethyl)quinolin-4-amine]
stage-specific action on cell cycle progression [6]: stage-specific action at the late trophozoite phase | fold more potent than analogue 95 ([1]; Dd2): ~2.5 fold | metabolites / metabolic pathway identified by LC–MS [7]: Demethylated (86-M1) and oxidized products (86-M2) | inhibition of β-hematin formation [5]: showed inhibitory activity toward β-hematin formation in a concentration-dependent manner

Fc1ccc(/C=C/c2cc(NCCCCN3CCOCC3)c3cc(Cl)ccc3n2)cc1 [compound 92, (E)-6-Chloro-2-(4-fluorostyryl)-N-(4-morpholinobutyl)quinolin-4-amine]
fold improved potency compared with counterpart 81 ([1]; Dd2): ~2 fold | metabolites / metabolic pathway identified by LC–MS [7]: breakage of the morpholine ring | fold increase in inhibitory activity relative to compound 81 [11]: ~6 fold | fold increase in cytotoxicity relative to compound 81 ([10]; HepG2): 4.8 fold | selectivity index (SI) [10]: > 1000

Clc1ccc2nc(/C=C/c3ccncc3)cc(NCCCCN3CCOCC3)c2c1 [compound 93, (E)-6-Chloro-N-(4-morpholinobutyl)-2-(2-(pyridin-4-yl)vinyl)-quinolin-4-amine]
fold improved potency compared with counterpart 82 ([1]; Dd2): ~13 fold | EC50 [1]: ≤ 0.015 µM | metabolites / metabolic pathway identified by LC–MS [7]: breakage of the morpholine ring

FC(F)(F)c1ccc(/C=C/c2cc(NCCCCN3CCOCC3)c3cc(Cl)ccc3n2)cc1 [compound 98, (E)-6-Chloro-N-(4-morpholinobutyl)-2-(4-(trifluoromethyl)-Styryl)quinolin-4-amine]
metabolites / metabolic pathway identified by LC–MS [7]: breakage of the morpholine ring

Fc1ccc(/C=C/c2cc(NCCCCN3CCOCC3)c3cc(Cl)ccc3n2)c(F)c1 [compound 104, (E)-6-Chloro-2-(2,4-difluorostyryl)-N-(4-morpholinobutyl)-quinolin-4-amine]
fold more active than 103 ([1]; Dd2): ~2.5 fold

Fc1ccc(/C=C/c2cc(NCCCCN3CCOCC3)c3cc(Cl)ccc3n2)cc1F [compound 105, (E)-6-Chloro-2-(3,4-difluorostyryl)-N-(4-morpholinobutyl)-quinolin-4-amine]
fold more active than 103 ([1]; Dd2): ~7 fold | metabolites / metabolic pathway identified by LC–MS [7]: breakage of the morpholine ring

Fc1cnccc1/C=C/c1cc(NCCCCN2CCOCC2)c2cc(Cl)ccc2n1 [compound 109, (E)-6-Chloro-2-(2-(3-fluoropyridin-4-yl)vinyl)-N-(4-morpholinobutyl)quinolin-4-amine]
fold less active than counterpart 93 ([1]; Dd2): ~7.5 fold

(E)-4-(6-Chloro-2-(4-isocyanostyryl)quinolin-4-yl)morpholine [compound 64]
EC50 [1]: > 1 µM
